The source of these data is US9416124B2, “Substituted 2-alkyl-1-OXO-N-phenyl-3-heteroaryl-1,2,3,4-tetrahydroisoquinoline-4-carboxamides for antimalarial therapies” (ST. JUDE CHILDREN'S RESEARCH HOSPITAL, priority 2011, dated 2016).

Each structure is given as a SMILES string. pEC50: −log10 of the molar value.

One test concerns P. falciparum 3D7. The test can be described thus: P. falciparum drug susceptibility assay (3D7). The class given is cell-based, Plasmodium falciparum. As to conditions: 3D7 strain; racemate unless indicated; read-out: 3D7_EC50. As to the method: Parasites were grown as previously described in Mallari, J. P., Guiguemde, W. A., and Guy, R. K., Antimalarial activity of thiosemicarbazones and purine derived nitriles, Bioorg Med Chem Lett 19 (13), 3546 (2009). […] DMSO inhibitor stock solutions were pin-transferred (V&P Scientific) into the assay plate and background fluorescence was measured in both relevant channels (485 nm /535 nm, 612 nm /665 nm) in an Envision plate reader (PerkinElmer). Then 20 μl of a synchronized culture suspension (1% rings, 10% hematocrit) were added per well, thus making a final hematocrit and parasitemia of 5% and 1% respectively. Assay plates were incubated for 72 h and parasitemia was determined based on a modified protocol. (Smilkstein, M. et al., Simple and inexpensive fluorescence-based technique for high-throughput antimalarial drug screening. Antimicrob Agents Chemother 48 (5), 1803 (2004)). Briefly, 5 μl of mixed DNA dye solution in RPMI (5X SYBR Green I, 1 μM YOYO-3, 1% v/v Triton X-100, 1 mg/ml saponin) were added per well, assay plates were shaken for 30 s at 2000 rpm, incubated in the dark for 4 h, then read as previously described.
In the case of `N#Cc1cc(NC(=O)C2c3ccccc3C(=O)N(CC(F)(F)F)C2c2cccnc2)ccc1F` (single isomer, unassigned; isomer d) [Example 6 d-isomer, d-N-(3-cyano-4-fluoro) -1-Oxo-3-pyridin-3-yl-2-(2,2,2-trifluoro-ethyl)-1,2,3,4-tetrahydro-isoquinoline-4-carboxamide], the pEC50 was 7.77.

As to `N#Cc1cc(F)cc(NC(=O)C2c3ccccc3C(=O)N(CC(F)(F)F)C2c2cn[nH]c2)c1` (single isomer, unassigned; isomer d) [Example 20 d-isomer, d-N-(3-cyano-5-fluorophenyl)-1-oxo-3-(1H-pyrazol-4-yl)-2-(2,2,2-trifluoroethyl)-1,2,3,4-tetrahydroisoquinoline-4-carboxamide], the pEC50 was 8.10.

Still in this test, the particulars now being: Plasmodium falciparum; 3D7 strain; racemate unless indicated; read-out: 3D7_EC50.
For `N#Cc1cccc(NC(=O)[C@H]2c3ccccc3C(=O)N(CC(F)(F)F)[C@@H]2c2cccnc2)c1` (racemic) [Example 18, N-(3-cyanophenyl)-1-oxo-3-(pyridin-3-yl)-2-(2,2,2-trifluoroethyl)-1,2,3,4-tetrahydroisoquinoline-4-carboxamide], the pEC50 was 7.62.

With `N#Cc1cc(F)cc(NC(=O)[C@H]2c3ccccc3C(=O)N(CC(F)(F)F)[C@@H]2c2cn[nH]c2)c1` (racemic) [Example 20, N-(3-cyano-5-fluorophenyl)-1-oxo-3-(1H-pyrazol-4-yl)-2-(2,2,2-trifluoroethyl)-1,2,3,4-tetrahydroisoquinoline-4-carboxamide], the pEC50 was 8.05.

For `CC(C)CN1C(=O)c2ccccc2[C@H](C(=O)Nc2cc(Cl)cc(C#N)c2)[C@H]1c1cn[nH]c1` (racemic) [Example 7, N-(3-chloro-5-cyanophenyl)-2-isobutyl-1-oxo-3-(1H-pyrazol-4-yl)-1,2,3,4-tetrahydroisoquinoline-4-carboxamide], the pEC50 is 8.52.

For the molecule `Cn1cc([C@@H]2[C@@H](C(=O)Nc3cccc(C#N)c3)c3ccccc3C(=O)N2CC(F)(F)F)cn1` (racemic) [Example 16, N-(3-cyanophenyl)-3-(1-methyl-1H-pyrazol-4-yl)-1-oxo-2-(2,2,2-trifluoroethyl)-1,2,3,4-tetrahydroisoquinoline-4-carboxamide], the pEC50 is 7.66.

As for `CC(C)CN1C(=O)c2ccccc2[C@H](C(=O)Nc2ccc(F)c(OC(F)(F)F)c2)[C@H]1c1cn[nH]c1` (racemic) [Example 31, N-(4-fluoro-3-(trifluoromethoxy)phenyl)-2-isobutyl-1-oxo-3-(1H-pyrazol-4-yl)-1,2,3,4-tetrahydroisoquinoline-4-carboxamide], the pEC50 was 7.89.

Turning to `CC(C)CN1C(=O)c2ccccc2[C@H](C(=O)Nc2cccc(C#N)c2)[C@H]1c1cnn(C)c1` (racemic) [Example 15, N-(3-cyanophenyl)-2-isobutyl-3-(1-methyl-1H-pyrazol-4-yl)-1-oxo-1,2,3,4-tetrahydroisoquinoline-4-carboxamide], the pEC50 was 7.44.

`CC(C)CN1C(=O)c2ccccc2[C@H](C(=O)Nc2cc(Cl)cc(C#N)c2)[C@H]1c1cccnc1` (racemic) [Example 11, N-(3-chloro-5-cyanophenyl)-2-isobutyl-1-oxo-3-(pyridin-3-yl)-1,2,3,4-tetrahydroisoquinoline-4-carboxamide]: the pEC50 is 7.70.

Take `CC(C)CN1C(=O)c2ccccc2[C@H](C(=O)Nc2cccc(C#N)c2)[C@H]1c1cn[nH]c1` (racemic) [Example 13, N-(3-cyanophenyl)-2-isobutyl-1-oxo-3-(1H-pyrazol-4-yl)-1,2,3,4-tetrahydroisoquinoline-4-carboxamide]: the pEC50 was 8.15.

On to `Cn1cc([C@@H]2[C@@H](C(=O)Nc3cc(F)cc(C#N)c3)c3ccccc3C(=O)N2CC(F)(F)F)cn1` (racemic) [Example 22, N-(3-cyano-5-fluorophenyl)-3-(1-methyl-1H-pyrazol-4-yl)-1-oxo-2-(2,2,2-trifluoroethyl)-l,2,3,4-tetrahydroisoquinoline-4-carboxamide], for which the pEC50 was 8.05.

As for `CC(C)CN1C(=O)c2ccccc2[C@H](C(=O)Nc2cc(Cl)cc(C#N)c2)[C@H]1c1cnn(C)c1` (racemic) [Example 9, N-(3-chloro-5-cyanophenyl)-2-isobutyl-3-(1-methyl-1H-pyrazol-4-yl)-1-oxo-1,2,3,4-tetrahydroisoquinoline-4-carboxamide], the pEC50 is 8.10.

Regarding `N#Cc1cccc(NC(=O)[C@H]2c3ccccc3C(=O)N(CC(F)(F)F)[C@@H]2c2cn[nH]c2)c1` (racemic) [Example 14, N-(3-cyanophenyl)-1-oxo-3-(1H-pyrazol-4-yl)-2-(2,2,2-trifluoroethyl)-1,2,3,4-tetrahydroisoquinoline-4-carboxamide], the pEC50 was 7.52.

Take `CC(C)CN1C(=O)c2ccc(F)cc2[C@H](C(=O)Nc2cc(F)cc(C#N)c2)[C@H]1c1ccc(C#N)s1` (racemic) [Example 51, N-(3-cyano-5-fluorophenyl)-3-(5-cyanothiophen-2-yl)-6-fluoro-2-isobutyl-1-oxo-1,2,3,4-tetrahydroisoquinoline-4-carboxamide]: the pEC50 was 8.30.

Regarding `CC(C)CN1C(=O)c2ccccc2[C@H](C(=O)Nc2cccc(C#N)c2)[C@H]1c1cccnc1` (racemic) [Example 17, N-(3-cyanophenyl)-2-isobutyl-1-oxo-3-(pyridin-3-yl)-1,2,3,4-tetrahydroisoquinoline-4-carboxamide], the pEC50 was 7.24.

On to `N#Cc1cc(Cl)cc(NC(=O)[C@H]2c3ccccc3C(=O)N(CC(F)(F)F)[C@@H]2c2cn[nH]c2)c1` (racemic) [Example 8, N-(3-chloro-5-cyanophenyl)-1-oxo-3-(1H-pyrazol-4-yl)-2-(2,2,2-trifluoroethyl)-1,2,3,4-tetrahydroisoquinoline-4-carboxamide], for which the pEC50 is 7.59.

For `CC(C)CN1C(=O)c2ccc(F)cc2[C@H](C(=O)Nc2cccc(C#N)c2)[C@H]1c1cnn(C)c1` (racemic) [Example 47, N-(3-cyanophenyl)-6-fluoro-2-isobutyl-3-(1-methyl-1H-pyrazol-4-yl)-1-oxo-1,2,3,4-tetrahydroisoquinoline-4-carboxamide], the pEC50 was 8.15.

On to `N#Cc1cc(F)cc(NC(=O)[C@H]2c3ccccc3C(=O)N(CC(F)(F)F)[C@@H]2c2cccnc2)c1` (racemic) [Example 24, N-(3-cyano-5-fluorophenyl)-1-oxo-3-(pyridin-3-yl)-2-(2,2,2-trifluoroethyl)-1,2,3,4-tetrahydroisoquinoline-4-carboxamide], for which the pEC50 was 7.42.

Take `O=C(Nc1ccc(F)c(OC(F)(F)F)c1)[C@H]1c2ccccc2C(=O)N(CC(F)(F)F)[C@@H]1c1cccnc1` (racemic) [Example 36, N-(4-fluoro-3-(trifluoromethoxy)phenyl)-1-oxo-3-(pyridin-3-yl)-2-(2,2,2-trifluoroethyl)-1,2,3,4-tetrahydroisoquinoline-4-carboxamide]: the pEC50 is 7.05.

With `CC(C)CN1C(=O)c2ccccc2[C@H](C(=O)Nc2cccc(OC(F)(F)F)c2)[C@H]1c1cnn(C)c1` (racemic) [Example 27, 2-isobutyl-3-(1-methyl-1H-pyrazol-4-yl)-1-oxo-N-(3-(trifluoromethoxy)phenyl)-1,2,3,4-tetrahydroisoquinoline-4-carboxamide], the pEC50 was 8.10.

For the molecule `CC(C)CN1C(=O)c2ccccc2[C@H](C(=O)Nc2cc(F)cc(C#N)c2)[C@H]1c1cnn(C)c1` (racemic) [Example 21, N-(3-cyano-5-fluorophenyl)-2-isobutyl-3-(1-methyl-1H-pyrazol-4-yl)-1-oxo-1,2,3,4-tetrahydroisoquinoline-4-carboxamide], the pEC50 is 7.68.

On to `N#Cc1cc(Cl)cc(NC(=O)[C@H]2c3ccccc3C(=O)N(CC(F)(F)F)[C@@H]2c2cccnc2)c1` (racemic) [Example 12, N-(3-chloro-5-cyanophenyl)-1-oxo-3-(pyridin-3-yl)-2-(2,2,2-trifluoroethyl)-1,2,3,4-tetrahydroisoquinoline-4-carboxamide], for which the pEC50 is 7.44.

As for `O=C(Nc1cc(F)cc(OC(F)(F)F)c1)[C@H]1c2ccccc2C(=O)N(CC(F)(F)F)[C@@H]1c1cn[nH]c1` (racemic) [Example 38, N-(3-fluoro-5-(trifluoromethoxy)phenyl)-1-oxo-3-(1H-pyrazol-4-yl)-2-(2,2,2-trifluoroethyl)-1,2,3,4-tetrahydroisoquinoline-4-carboxamide], the pEC50 is 7.21.

As for `CC(C)CN1C(=O)c2ccccc2[C@H](C(=O)Nc2ccc(F)c(OC(F)(F)F)c2)[C@H]1c1cnn(C)c1` (racemic) [Example 33, N-(4-fluoro-3-(trifluoromethoxy)phenyl)-2-isobutyl-3-(1-methyl-1H-pyrazol-4-yl)-1-oxo-1,2,3,4-tetrahydroisoquinoline-4-carboxamide], the pEC50 was 7.77.

Still in this test, the particulars now being: separated enantiomers, assayed as described in 4a; listed as 6 l; read-out: Potency (nM, 3D7 strain).
With `N#Cc1cc(NC(=O)C2c3ccccc3C(=O)N(CC(F)(F)F)C2c2cccnc2)ccc1F` (single isomer, unassigned) [Example 6 l-isomer, l-N-(3-cyano-4-fluoro)-1-Oxo-3-pyridin-3-yl-2-(2,2,2-trifluoro-ethyl)-1,2,3,4-tetrahydro isoquinoline-4-carboxamide], the EC50 amounted to 477 nM.

The same test, now with this note: separated enantiomers, assayed as described in 4a; listed as 6 d; read-out: Potency (nM, 3D7 strain).
On to `N#Cc1cc(NC(=O)C2c3ccccc3C(=O)N(CC(F)(F)F)C2c2cccnc2)ccc1F` (single isomer, unassigned; isomer d) [Example 6 d-isomer, d-N-(3-cyano-4-fluoro) -1-Oxo-3-pyridin-3-yl-2-(2,2,2-trifluoro-ethyl)-1,2,3,4-tetrahydro-isoquinoline-4-carboxamide], for which the EC50 was found to be 15 nM.

The same test, now with this note: separated enantiomers, assayed as described in 4a; read-out: Potency (nM, 3D7 strain).
As for `N#Cc1cc(F)cc(NC(=O)C2c3ccccc3C(=O)N(CC(F)(F)F)C2c2cn[nH]c2)c1` (single isomer, unassigned; isomer d) [Example 20 d-isomer, d-N-(3-cyano-5-fluorophenyl)-1-oxo-3-(1H-pyrazol-4-yl)-2-(2,2,2-trifluoroethyl)-1,2,3,4-tetrahydroisoquinoline-4-carboxamide], the EC50 came to 11 nM.
